From ChEMBL document CHEMBL4033668, “Inhibitors of cytochrome P450 (CYP) 1B1” (Eur J Med Chem, 2017)

Tests used:
Cytochrome P450 1B1 [1] = target: T1, Cytochrome P450 1B1 (Homo sapiens, UniProt Q16678); test: Inhibition of CYP1B1 (unknown origin) expressed in Escherichia coli DH5alpha coexpressing human NADPH-P450 reductase using 7-Ethoxyresorufin as substrate up to 6 mins in presence of NADP+ by spectrofluorometric analysis
T1 sequence (Q16678 whole entry): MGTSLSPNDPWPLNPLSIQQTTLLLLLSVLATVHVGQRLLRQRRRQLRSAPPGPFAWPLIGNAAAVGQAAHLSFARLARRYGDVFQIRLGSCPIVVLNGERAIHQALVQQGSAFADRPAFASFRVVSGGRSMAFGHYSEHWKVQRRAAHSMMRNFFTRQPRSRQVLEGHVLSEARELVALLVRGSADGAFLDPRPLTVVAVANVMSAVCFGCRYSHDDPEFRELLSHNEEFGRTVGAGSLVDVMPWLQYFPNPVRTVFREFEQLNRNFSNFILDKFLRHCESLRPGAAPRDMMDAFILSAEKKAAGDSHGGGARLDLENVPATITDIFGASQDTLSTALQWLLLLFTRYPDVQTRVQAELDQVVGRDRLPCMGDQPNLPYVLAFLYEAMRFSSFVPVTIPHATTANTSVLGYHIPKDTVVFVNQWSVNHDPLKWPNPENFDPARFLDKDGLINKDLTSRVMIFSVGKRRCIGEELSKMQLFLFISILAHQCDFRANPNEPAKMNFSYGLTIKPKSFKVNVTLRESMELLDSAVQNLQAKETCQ

Cytochrome P450 1A2 [2] = target: T2, Cytochrome P450 1A2 (Homo sapiens, UniProt P05177); test: Inhibition of CYP1A2 (unknown origin) expressed in Escherichia coli DH5alpha coexpressing human NADPH-P450 reductase using 7-Ethoxyresorufin as substrate up to 6 mins in presence of NADP+ by spectrofluorometric analysis; type: ADME
T2 sequence (P05177 whole entry): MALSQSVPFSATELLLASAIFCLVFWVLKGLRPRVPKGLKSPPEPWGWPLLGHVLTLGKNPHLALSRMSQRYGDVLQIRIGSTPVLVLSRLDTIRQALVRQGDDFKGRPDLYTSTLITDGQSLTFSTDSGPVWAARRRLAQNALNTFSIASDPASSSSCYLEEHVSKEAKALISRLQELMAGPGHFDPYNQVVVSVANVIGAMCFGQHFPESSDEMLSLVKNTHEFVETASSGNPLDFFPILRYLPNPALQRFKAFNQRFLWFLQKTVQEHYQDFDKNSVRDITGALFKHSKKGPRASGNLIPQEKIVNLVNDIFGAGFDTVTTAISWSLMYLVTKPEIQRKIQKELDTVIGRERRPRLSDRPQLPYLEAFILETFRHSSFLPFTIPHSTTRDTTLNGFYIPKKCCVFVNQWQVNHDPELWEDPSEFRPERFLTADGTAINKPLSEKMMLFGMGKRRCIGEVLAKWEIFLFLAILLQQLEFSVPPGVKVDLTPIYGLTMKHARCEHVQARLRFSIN

Cytochrome P450 1A1 [3] = target: T3, Cytochrome P450 1A1 (Homo sapiens, UniProt P04798); test: Inhibition of CYP1A1 (unknown origin) expressed in Escherichia coli DH5alpha coexpressing human NADPH-P450 reductase using 7-Ethoxyresorufin as substrate up to 6 mins in presence of NADP+ by spectrofluorometric analysis; type: ADME
T3 sequence (P04798 whole entry): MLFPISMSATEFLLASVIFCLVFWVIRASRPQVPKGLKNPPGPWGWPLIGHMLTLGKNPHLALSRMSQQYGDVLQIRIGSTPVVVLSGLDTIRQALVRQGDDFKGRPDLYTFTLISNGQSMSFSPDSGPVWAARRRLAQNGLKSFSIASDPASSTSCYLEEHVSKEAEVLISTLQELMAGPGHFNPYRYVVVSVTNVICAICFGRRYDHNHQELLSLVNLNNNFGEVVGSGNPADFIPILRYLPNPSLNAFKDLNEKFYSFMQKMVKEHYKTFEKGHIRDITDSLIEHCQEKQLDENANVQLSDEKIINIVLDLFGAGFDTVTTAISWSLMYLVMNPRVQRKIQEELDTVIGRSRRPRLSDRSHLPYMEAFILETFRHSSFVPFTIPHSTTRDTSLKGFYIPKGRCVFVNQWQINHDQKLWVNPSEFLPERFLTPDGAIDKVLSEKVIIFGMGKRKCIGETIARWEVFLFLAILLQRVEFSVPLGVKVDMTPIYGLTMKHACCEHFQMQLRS

Cytochrome P450 1A1 [4] = target: T3, Cytochrome P450 1A1; test: Competitive inhibition of […] CYP1A1 expressed in supersomes coexpressing NADPH-CYP reductase using 7-Ethoxyresorufin as substrate measured every 5 mins for 30 mins in presence of NADPH by fluorescence assay; type: ADME; conditions: read-out: Ki(app)
Cytochrome P450 1B1 [5] = target: T1, Cytochrome P450 1B1; test: Inhibition of human CYP1B1 expressed in Escherichia coli DH5alpha coexpressing human NADPH P450 reductase using 7-ethoxyresorufin as substrate in presence of NADP+ by spectrofluorometeric analysis
Cytochrome P450 1A1 [6] = target: T3, Cytochrome P450 1A1; test: Inhibition of recombinant CYP1A1 (unknown origin) expressed in Escherichia coli DH5alphaF'Iq coexpressing human NADPH-P450 reductase using E2-d4 as substrate after 10 mins in presence of NADP+; type: ADME
Cytochrome P450 1B1 [7] = target: T1, Cytochrome P450 1B1; test: Inhibition of recombinant CYP1B1 (unknown origin) expressed in Escherichia coli DH5alphaF'Iq coexpressing human NADPH-P450 reductase using E2-d4 as substrate after 10 mins in presence of NADP+
Cytochrome P450 1B1 [8] = target: T1, Cytochrome P450 1B1; test: Inhibition of recombinant human CYP1B1 expressed in Escherichia coli coexpressing human NADPH-cytochrome P450 reductase using 7-ethoxyresorufin as substrate by fluorescence spectrophotometric analysis
Cytochrome P450 1A1 [9] = target: T3, Cytochrome P450 1A1; test: Inhibition of recombinant human CYP1A1 expressed in Escherichia coli coexpressing human NADPH-cytochrome P450 reductase using 7-ethoxyresorufin as substrate by fluorescence spectrophotometric analysis; type: ADME
Homo sapiens = species on record: Homo sapiens; test: Selectivity index, ratio of IC50 for recombinant human CYP1A1 expressed in Escherichia coli coexpressing human NADPH-cytochrome P450 reductase to IC50 for recombinant human CYP1B1 expressed in Escherichia coli coexpressing human NADPH-cytochrome P450 reductase
Cytochrome P450 1A1 [10] = target: T3, Cytochrome P450 1A1; test: Inhibition of recombinant human CYP1A1 expressed in supersomes coexpressing NADPH-CYP reductase using 7-ethoxyresorufin as substrate after 15 mins in presence of NADP+ by Lineweaver-Burk plot analysis; type: ADME
Cytochrome P450 1B1 [11] = target: T1, Cytochrome P450 1B1; test: Inhibition of recombinant CYP1B1 (unknown origin) expressed in supersomes coexpressing NADPH-CYP reductase using 7-ethoxyresorufin as substrate after 15 mins in presence of NADP+ by fluorescence spectrophotometric analysis
Cytochrome P450 1B1 [12] = target: T1, Cytochrome P450 1B1; test: Inhibition of recombinant CYP1B1 (unknown origin) expressed in supersomes coexpressing NADPH-CYP reductase using 7-ethoxyresorufin as substrate after 15 mins in presence of NADP+ by Lineweaver-Burk plot analysis
Cytochrome P450 1A1 [13] = target: T3, Cytochrome P450 1A1; test: Inhibition of recombinant human CYP1A1 expressed in supersomes using 7-ethoxyresorufin O-deethylation as substrate after 5 mins in presence of NADP+ by spectrofluorimetric analysis; type: ADME
Cytochrome P450 1A2 [14] = target: T2, Cytochrome P450 1A2; test: Inhibition of recombinant human CYP1A2 expressed in supersomes using 7-ethoxyresorufin O-deethylation as substrate after 5 mins in presence of NADP+ by spectrofluorimetric analysis; type: ADME
Cytochrome P450 1B1 [15] = target: T1, Cytochrome P450 1B1; test: Inhibition of human CYP1B1 expressed in Escherichia coli DH5alpha coexpressing human NADPH P450 reductase using 7-ethoxyresorufin as substrate in presence of NADP+ by fluorimetric analysis
Cytochrome P450 1B1 [16] = target: T1, Cytochrome P450 1B1; test: Inhibition of human CYP1B1 expressed in Escherichia coli DH5alpha coexpressing human NADPH-P450 reductase using 4-estradiol as substrate in presence of NADP+ by Michaelis-Menten plot analysis
Cytochrome P450 1B1 [17] = target: T1, Cytochrome P450 1B1; test: Inhibition of human CYP1B1 expressed in Escherichia coli DH5alpha coexpressing human NADPH-P450 reductase using 4-estradiol as substrate in presence of NADP+ by HPLC analysis
Cytochrome P450 1B1 [18] = target: T1, Cytochrome P450 1B1; test: Inhibition of recombinant human CYP1B1 expressed in supersomes coexpressing NADPH-CYP reductase using 7-ethoxyresorufin as substrate after 15 mins in presence of NADP+ by Lineweaver-Burk plot analysis
Cytochrome P450 1B1 [19] = target: T1, Cytochrome P450 1B1; test: Inhibition of CYP1B1 in […] recombinant human cytochrome P450 oxidoreductase using 7-ethoxyresorufin as substrate after 3 mins in presence of NADP+ by fluorescence assay

Molecule N#C[Se]Cc1cccc(C[Se]C#N)c1 has an IC50 (Cytochrome P450 1B1 [1]) of 130 to 270 nM, an IC50 (Cytochrome P450 1A2 [2]) of 200 to 1300 nM and an IC50 (Cytochrome P450 1A1 [3]) of 100 to 450 nM.

With C=C(C)[C@@H]1CCC(C)=C[C@H]1c1c(O)cc(CCCCC)cc1O [CANNABIDIOL] the Ki (Cytochrome P450 1A1 [4]) was 150 nM.

COc1ccc(-c2cc(=O)c3c(O)cc(O)cc3o2)cc1OC gave an IC50 (Cytochrome P450 1B1 [5]) of 19 nM.

Molecule COc1cc2c(cc1O)[C@H]1CC[C@]3(C)[C@@H](O)CC[C@H]3[C@@H]1CC2 has a Ki (Cytochrome P450 1A1 [6]) of 69000 nM and a Ki (Cytochrome P450 1B1 [7]) of 28000 nM.

For CNCCC(Oc1ccc(C(F)(F)F)cc1)c1ccccc1 (stereo unspecified) [FLUOXETINE], the IC50 (Cytochrome P450 1B1 [1]) was 475000 nM.

Molecule O=C1c2ccccc2C(=O)c2c(O)c(O)cc(O)c21 [PURPURIN] has an IC50 (Cytochrome P450 1B1 [8]) of 2200 nM, a Ki (Cytochrome P450 1B1 [8]) of 700 nM and an IC50 (Cytochrome P450 1A1 [9]) of 5500 nM. The Ratio IC50 (Homo sapiens) was 2.5.

COc1cc(O)cc(/C=C/c2ccc(O)cc2)c1 was tested, and the Ki (Cytochrome P450 1A1 [10]) was 130 nM.

Molecule COc1ccccc1/C=C/c1ccc(SC)cc1 has a Ki (Cytochrome P450 1B1 [11]) of 300 nM and a Ki (Cytochrome P450 1B1 [12]) of 41 nM.

Molecule Cc1cc(Cl)c2c(c1N)C(=O)c1ccccc1C2=O has an IC50 (Cytochrome P450 1A1 [13]) of 400 nM and an IC50 (Cytochrome P450 1A2 [14]) of 530 nM.

Molecule COc1cccc(/C=C/c2ccc(SC)cc2)c1 has a Ki (Cytochrome P450 1B1 [11]) of 500 nM and a Ki (Cytochrome P450 1B1 [12]) of 30 nM.

N#C[Se]Cc1ccc(C[Se]C#N)cc1 was tested, and the IC50 (Cytochrome P450 1B1 [1]) was 130 to 270 nM, the IC50 (Cytochrome P450 1A2 [2]) was 200 to 1300 nM and the IC50 (Cytochrome P450 1A1 [3]) was 100 to 450 nM.

c1ccc2c(c1)ccc1cc3c(ccc4ccccc43)cc12 was tested, and the IC50 (Cytochrome P450 1B1 [15]) was 9 nM.

Work on COc1ccc2cc3[n+](cc2c1OC)CCc1cc2c(cc1-3)OCO2 [BERBERINE] yielded a Ki (Cytochrome P450 1B1 [16]) of 44 nM and an IC50 (Cytochrome P450 1B1 [17]) of 330 nM.

Work on O=c1cc(-c2ccccc2)oc2cccc(O)c12 [5-HYDROXYFLAVONE] yielded an IC50 (Cytochrome P450 1B1 [5]) of 210 nM.

For Oc1ccc(/C=C/c2cc(O)cc(O)c2)cc1 [RESVERATROL], the Ki (Cytochrome P450 1B1 [11]) was 11200 nM and the Ki (Cytochrome P450 1B1 [18]) was 800 nM.

In the case of CC[C@H]1OC(=O)[C@H](C)[C@@H](O[C@H]2C[C@@](C)(OC)[C@@H](O)[C@H](C)O2)[C@H](C)[C@@H](O[C@@H]2O[C@H](C)C[C@H](N(C)C)[C@H]2O)[C@](C)(O)C[C@@H](C)C(=O)[C@H](C)[C@@H](O)[C@]1(C)O [ERYTHROMYCIN], the IC50 (Cytochrome P450 1B1 [1]) is reported as 40000 nM.

Cc1cc(O)c2c(c1)C(=O)c1cc(O)cc(O)c1C2=O [EMODIN] gave an IC50 (Cytochrome P450 1A2 [14]) of 3730 nM.

For COc1ccc(-c2coc3cc(O)cc(O)c3c2=O)cc1 [BIOCHANIN], the Ki (Cytochrome P450 1B1 [19]) was 1900 nM.
